Measurements as given in patent US20130259835A1, “BIFIDOBACTERIUM ADOLESCENTIS SPM0212 HAVING ANTIVIRAL ACTIVITY FOR HEPATITIS B VIRUS, AND PHARMACEUTICAL COMPOSITION FOR PREVENTING AND TREATING HEPATITIS B COMPRISING THEREOF” (SAHMYOOK UNIVERSITY INDUSTRY-ACADEMIC COOPERATION, priority 2011, published 2013).

Legend:
[1] = tested on: Bifidobacterium pseudocatenulatum KCTC3223; experiment: Antibiotics sensitivity, agar dilution MIC; type: cell-based; conditions: strain KCTC3223; Table 5
Procedure: (§1) Antibiotics sensitivity test was performed for comparative analysis of phenotypes of the lactobacillus strain separated in Example 1 and standard strains purchased from KCTC. In order to find out the minimum inhibitory concentrations (MICs) of 18 kinds of antibiotics (ampicillin, mupirocin, amoxicillin/clavulanic acid, oxacillin, cefonicid, cefazolin, ceftazidime, cefotaxime, ceftriaxone, tigecyclin, streptomycin, vancomycin, teicoplanin, daptomycin, linezolid, clindamycin, quinupristin/dalfopristin and tobramycin), agar dilution method was performed according to the Clinical and Laboratory Standards Institute (CLSI, 2003), and the results were listed in Tables 4 and 5.

[2] = tested on: Bifidobacterium adolescentis SPM1608; experiment: Antibiotics sensitivity, agar dilution MIC; type: cell-based; conditions: strain SPM1608; Table 5
Procedure: as §1

[3] = tested on: Bifidobacterium adolescentis KCTC3352; experiment: Antibiotics sensitivity, agar dilution MIC; type: cell-based; conditions: strain KCTC3352; Table 5
Procedure: as §1

[4] = tested on: Bifidobacterium pseudocatenulatum SPM1309; experiment: Antibiotics sensitivity, agar dilution MIC; type: cell-based; conditions: strain SPM1309; Table 5
Procedure: as §1

[5] = tested on: Bifidobacterium adolescentis SPM1601; experiment: Antibiotics sensitivity, agar dilution MIC; type: cell-based; conditions: strain SPM1601; Table 5
Procedure: as §1

[6] = tested on: Bifidobacterium adolescentis SPM1005; experiment: Antibiotics sensitivity, agar dilution MIC; type: cell-based; conditions: strain SPM1005; Table 5
Procedure: as §1

[7] = tested on: Bifidobacterium longum SPM1206; experiment: Antibiotics sensitivity, agar dilution MIC; type: cell-based; conditions: strain SPM1206; Table 5
Procedure: as §1

[8] = tested on: Bifidobacterium adolescentis SPM1605; experiment: Antibiotics sensitivity, agar dilution MIC; type: cell-based; conditions: strain SPM1605; Table 5
Procedure: as §1

[9] = tested on: Bifidobacterium adolescentis SPM0214; experiment: Antibiotics sensitivity, agar dilution MIC; type: cell-based; conditions: strain SPM0214; Table 5
Procedure: as §1

[10] = tested on: Bifidobacterium adolescentis SPM1606; experiment: Antibiotics sensitivity, agar dilution MIC; type: cell-based; conditions: strain SPM1606; Table 5
Procedure: as §1

[11] = tested on: Bifidobacterium adolescentis SPM1307-A; experiment: Antibiotics sensitivity, agar dilution MIC; type: cell-based; conditions: strain SPM1307-A; Table 5
Procedure: as §1

[12] = tested on: Bifidobacterium longum KCTC3128; experiment: Antibiotics sensitivity, agar dilution MIC; type: cell-based; conditions: strain KCTC3128; Table 5
Procedure: as §1

[13] = tested on: Bifidobacterium longum SPM1205; experiment: Antibiotics sensitivity, agar dilution MIC; type: cell-based; conditions: strain SPM1205; Table 5
Procedure: as §1

[14] = tested on: Bifidobacterium adolescentis SPM1604; experiment: Antibiotics sensitivity, agar dilution MIC; type: cell-based; conditions: strain SPM1604; Table 5
Procedure: as §1

[15] = tested on: Bifidobacterium adolescentis SPM0308; experiment: Antibiotics sensitivity, agar dilution MIC; type: cell-based; conditions: strain SPM0308; Table 5
Procedure: as §1

[16] = tested on: Bifidobacterium adolescentis SPM0212; experiment: Antibiotics sensitivity, agar dilution MIC; type: cell-based; conditions: strain SPM0212; Table 5
Procedure: as §1

[17] = tested on: Bifidobacterium pseudocatenulatum SPM1204; experiment: Antibiotics sensitivity, agar dilution MIC; type: cell-based; conditions: strain SPM1204; Table 5
Procedure: as §1

[18] = tested on: Bifidobacterium longum SPM1207; experiment: Antibiotics sensitivity, agar dilution MIC; type: cell-based; conditions: strain SPM1207; Table 5
Procedure: as §1

hepatitis B virus = conditions: administered 3 times a week for at least 3 months; average; cited from earlier work

Substance | Minimum inhibitory concentrations (MICs) [1] [μl/Ml] | Minimum inhibitory concentrations (MICs) [2] [μl/Ml] | Minimum inhibitory concentrations (MICs) [3] [μl/Ml] | Minimum inhibitory concentrations (MICs) [4] [μl/Ml] | Minimum inhibitory concentrations (MICs) [5] [μl/Ml] | Minimum inhibitory concentrations (MICs) [6] [μl/Ml] | Minimum inhibitory concentrations (MICs) [7] [μl/Ml] | Minimum inhibitory concentrations (MICs) [8] [μl/Ml] | Minimum inhibitory concentrations (MICs) [9] [μl/Ml] | Minimum inhibitory concentrations (MICs) [10] | Minimum inhibitory concentrations (MICs) [11] [μl/Ml] | Minimum inhibitory concentrations (MICs) [12] [μl/Ml] | Minimum inhibitory concentrations (MICs) [13] [μl/Ml] | Minimum inhibitory concentrations (MICs) [14] | Minimum inhibitory concentrations (MICs) [15] [μl/Ml] | Minimum inhibitory concentrations (MICs) [16] [μl/Ml] | Minimum inhibitory concentrations (MICs) [17] [μl/Ml] | Minimum inhibitory concentrations (MICs) [18] | patients with treatment effect of inhibiting the virus replication (hepatitis B virus) [%]
teicoplanin [TEC] | 2 | 2 | 2 | 0.25 | 2 | 1 | 1 | 1 | 2 | ≦0.06 μl/Ml | 0.5 | 2 | 0.5 | ≦0.06 μl/Ml | 2 | 2 | 2 | 1 | 
interferon-α |  |  |  |  |  |  |  |  |  |  |  |  |  |  |  |  |  |  | 20
